ChEMBL document CHEMBL6115036, “Exploration of membrane-active cephalosporin derivatives as potent antibacterial agents against Staphylococcus aureus biofilms and persisters” (Eur J Med Chem, 2025)
Calls of active or inactive are those of the source. The rule behind the calls is not given here.

Tests used:
Staphylococcus aureus [1] = assay: Disruption of cell membrane in Staphylococcus aureus assessed as nucleic acid leakage at 32 ug/ml measured after 2 hrs by fluorescence based analysis; format: functional, organism-based; conditions: dose 32.0 µg/ml
Enterococcus faecalis = assay: Antimicrobial activity against Enterococcus faecalis incubated for 16 to 18 hrs by broth dilution assay; format: functional; conditions: time 16-18 hrs
Staphylococcus aureus [2] = assay: Induction of inner membrane permeability in Staphylococcus aureus assessed as increase in fluorescence intensity at 32 ug/ml measured for 20 mins by PI dye based analysis; format: functional, organism-based; conditions: dose 32.0 µg/ml
[3] = Hemolytic activity in sheep red blood cells incubated for 1 hr; format: toxicity, cell-based, Ovis aries, Erythrocyte
Escherichia coli = assay: Antimicrobial activity against Escherichia coli incubated for 16 to 18 hrs by broth dilution assay; format: functional; conditions: time 16-18 hrs
[4] = system: Stenotrophomonas maltophilia; assay: Antimicrobial activity against Stenotrophomonas maltophilia incubated for 16 to 18 hrs by broth dilution assay; format: functional; conditions: time 16-18 hrs
Staphylococcus aureus [5] = assay: Disruption of cell membrane in Staphylococcus aureus assessed as protein leakage at 32 ug/ml measured after 2 hrs by fluorescence based analysis; format: functional, organism-based; conditions: dose 32.0 µg/ml
Staphylococcus aureus [6] = assay: Induction of cytoplasmic membrane depolarization in Staphylococcus aureus assessed as increase in fluorescence intensity at 32 ug/ml measured for 20 mins by DiSC3(5) dye based analysis; format: functional, organism-based; conditions: dose 32.0 µg/ml
Staphylococcus aureus [7] = assay: Antimicrobial activity against Staphylococcus aureus incubated for 16 to 18 hrs by broth dilution assay; format: functional; conditions: time 16-18 hrs
Staphylococcus aureus [8] = assay: Induction of resistance development in Staphylococcus aureus assessed as fold increase in MIC at sub-MIC measured after 20 passages relative to control; format: functional
Staphylococcus aureus [9] = assay: Induction of resistance development in norfloxacin-resistant Staphylococcus aureus assessed as fold increase in MIC at sub-MIC measured after 20 passages relative to control; format: functional
Staphylococcus aureus [10] = assay: Induction of resistance development in drug-resistant Staphylococcus aureus assessed as fold increase in MIC of cefuroxime sodium at sub-MIC measured after 20 passages relative to control; format: functional
Staphylococcus aureus [11] = assay: Induction of resistance development in drug-resistant Staphylococcus aureus assessed as fold increase in MIC of rifampicin at sub-MIC measured after 20 passages relative to control; format: functional
Staphylococcus aureus [12] = assay: Induction of resistance development in drug-resistant Staphylococcus aureus assessed as fold increase in MIC of ampicillin sodium at sub-MIC measured after 20 passages relative to control; format: functional

| Structure (SMILES) | Activity (Staphylococcus aureus [1]) | MIC (Enterococcus faecalis) [µg/mL] | Activity (Staphylococcus aureus [2]) | HC50 at 1 h [3] [µg/mL] | MIC (Escherichia coli) [µg/mL] | MIC [4] [µg/mL] | Activity (Staphylococcus aureus [5]) | Activity (Staphylococcus aureus [6]) | MIC (Staphylococcus aureus [7]) [µg/mL] | fold change (FC) (Staphylococcus aureus [8]) | fold change (FC) (Staphylococcus aureus [9]) | fold change (FC) (Staphylococcus aureus [10]) | fold change (FC) (Staphylococcus aureus [11]) | fold change (FC) (Staphylococcus aureus [12]) |
| --- | --- | --- | --- | --- | --- | --- | --- | --- | --- | --- | --- | --- | --- | --- |
| CCCCCCCCCCCC[n+]1ccc(-c2cc[n+](CC3=C(C(=O)[O-])N4C(=O)[C@@H](NC(=O)Cc5ccccc5)[C@H]4SC3)cc2)cc1.O=C([O-])C(F)(F)F | inactive | 4 | Active | 333 | 128 | > 128 | inactive | Active | 0.25 |  |  |  |  |  |
| CCn1cc(C(=O)O)c(=O)c2cc(F)c(N3CCNCC3)cc21 [NORFLOXACIN] |  |  |  |  |  |  |  |  |  | 64 | 64 |  |  |  |
| O=C(Cc1ccccc1)N[C@@H]1C(=O)N2C(C(=O)O)=C(C[n+]3ccccc3)CS[C@H]12.[I-] |  | 16 |  | > 1280 | 32 | 64 |  |  | 0.063 | 64 |  | >128 | 8 | 64 |
